Assay results from ChEMBL document CHEMBL6087460, “Generating a Peptide Library Using the Repeats of Amino Acid Scaffolds Created by Sliding the Framework of a 7-mer Human Chemerin Segment and Discovery of Potent Antibacterial and Antimycobacterial Peptides” (J Med Chem, 2025).
The source made the active and inactive calls. The calls are words filed in the database; no cut-off is given here.

Key:
Staphylococcus aureus [1] = assay: Antibacterial activity against Staphylococcus aureus ATCC 25923 incubated for 16 to 18 hrs in presence of 10 percent human serum by broth dilution assay; format: functional; conditions: time 16-18 hrs
Staphylococcus aureus [2] = assay: Disruption of plasma membrane integrity in Staphylococcus aureus ATCC 25923 by SYTOX-Green uptake assay; format: functional, organism-based
Bacillus subtilis = assay: Antibacterial activity against Bacillus subtilis 6633 incubated for 16 to 18 hrs by broth dilution assay; format: functional; conditions: time 16-18 hrs
Escherichia coli [3] = assay: Disruption of plasma membrane integrity in Escherichia coli ATCC 25922 by SYTOX-Green uptake assay; format: functional, organism-based
Staphylococcus aureus [4] = assay: Induction of resistance development in methicillin-resistant Staphylococcus aureus BAA-44 assessed as fold increase in MIC at sub-MIC measured after 30 passages relative to control; format: functional
Staphylococcus aureus [5] = assay: Disruption of membrane integrity in Staphylococcus aureus ATCC 25923 by PI staining based analysis; format: functional, organism-based
Escherichia coli [6] = assay: Antibacterial activity against Escherichia coli ATCC 25922 infected in BALB/c mouse assessed as bacterial count in kidney at 5 mg/kg, iv administered thrice at 1,3 and 5 hrs post-infection measured after 24 hrs post-last dose (Rvb ~ 1.8 x10^7 CFU/mL); format: functional; conditions: time 29 hrs
Staphylococcus aureus [7] = assay: Antibacterial activity against Staphylococcus aureus ATCC 25923 incubated for 16 to 18 hrs by broth dilution assay; format: functional; conditions: time 16-18 hrs
Staphylococcus aureus [8] = assay: Induction of resistance development in methicillin-resistant Staphylococcus aureus 33591 assessed as fold increase in MIC at sub-MIC measured after 30 passages relative to control; format: functional
Escherichia coli [9] = assay: Antibacterial activity against Escherichia coli ATCC 25922 infected in BALB/c mouse assessed as bacterial count in spleen at 5 mg/kg, iv administered thrice at 1,3 and 5 hrs post-infection measured after 24 hrs post-last dose (Rvb ~ 1.9 x10^7 CFU/mL); format: functional; conditions: time 29 hrs
[10] = tested on: Mycolicibacterium smegmatis; assay: Antimycobacterial activity against Mycobacterium smegmatis assessed as reduction in bacterial growth at 2 times MIC pretreated for 1 hr followed by compound removal and subsequent culturing in fresh media without compound for 24 hrs measured after 4 days; format: functional, organism-based
[11] = Toxicity in mouse assessed as change in serum AST level at 15 mg/kg, iv administered each day for 5 days measured after 7 days post-last dose; format: organism-based; conditions: in vivo, 120 h, time 5 day
[12] = Cytotoxicity against mouse 3T3-L1 cells assessed as cell viability at 100 uM incubated for 24 hrs by MTT assay relative to control; format: toxicity, cell-based; conditions: 3T3-L1 cells, read-out: Activity
Escherichia coli [13] = assay: Antibacterial activity against Escherichia coli ATCC 25922 incubated for 16 to 18 hrs by broth dilution assay; format: functional; conditions: time 16-18 hrs
Staphylococcus aureus [14] = assay: Induction of resistance development in Staphylococcus aureus ATCC 25923 assessed as fold increase in MIC at sub-MIC measured after 30 passages relative to control; format: functional
Staphylococcus aureus [15] = assay: Induction of membrane depolarization in Staphylococcus aureus ATCC 25923 by diSC3-5 dye based analysis; format: functional, organism-based
[16] = tested on: Mycolicibacterium smegmatis; assay: Disruption of cell membrane integrity in Mycobacterium smegmatis incubated for 2 hrs by EtBr uptake assay; format: functional, organism-based
Escherichia coli [17] = assay: Antibacterial activity against Escherichia coli ATCC 25922 infected in BALB/c mouse assessed as bacterial count in blood at 5 mg/kg, iv administered thrice at 1,3 and 5 hrs post-infection measured after 24 hrs post-last dose (Rvb ~ 9.6 x10^6 CFU/mL); format: functional; conditions: time 29 hrs
Staphylococcus aureus [18] = assay: Antibacterial activity against methicillin-resistant Staphylococcus aureus 33591 incubated for 16 to 18 hrs by broth dilution assay; format: functional; conditions: time 16-18 hrs
[19] = Toxicity in mouse assessed as change in serum ALT level at 15 mg/kg, iv administered each day for 5 days measured after 7 days post-last dose; format: organism-based; conditions: in vivo, 120 h, time 5 day
Staphylococcus aureus [20] = assay: Bactericidal activity against Staphylococcus aureus ATCC 25923 incubated for 16 to 18 hrs; format: functional; conditions: time 16-18 hrs
[21] = Toxicity in BALB/c mouse infected with Escherichia coli ATCC 25922 assessed as animal survival at 2.5 mg/kg, iv administered thrice at 1,3 and 5 hrs post-infection measured after 7 days; format: organism-based; conditions: in vivo, 168 h, time 7 day
Escherichia coli [22] = assay: Disruption of membrane integrity in Escherichia coli ATCC 25922 by PI staining based analysis; format: functional, organism-based
Escherichia coli [23] = assay: Antibacterial activity against Escherichia coli ATCC 25922 incubated for 16 to 18 hrs in presence of 10 percent human serum by broth dilution assay; format: functional; conditions: time 16-18 hrs
[24] = Stability in 10 percent human serum assessed as compound remaining measured after 60 mins by RP-HPLC analysis; format: ADME, cell-free; conditions: 10% human serum, read-out: Stability
[25] = Toxicity in BALB/c mouse assessed as change in ALT level at 15 mg/kg, iv administered thrice at 2 hrs interval measured after 7 days; format: organism-based; conditions: in vivo, 168 h, time 7 day
[26] = Toxicity in mouse assessed as animal survival at 15 mg/kg, iv administered each day for 5 days measured after 7 days post-last dose; format: organism-based; conditions: in vivo, 120 h, time 5 day
Klebsiella pneumoniae = assay: Antibacterial activity against Klebsiella pneumoniae ATCC 27736 incubated for 16 to 18 hrs by broth dilution assay; format: functional; conditions: time 16-18 hrs
Escherichia coli [27] = assay: Induction of membrane depolarization in Escherichia coli ATCC 25922 by diSC3-5 dye based analysis; format: functional, organism-based
[28] = Toxicity in BALB/c mouse infected with Escherichia coli ATCC 25922 assessed as animal survival at 5 mg/kg, iv administered thrice at 1,3 and 5 hrs post-infection measured after 7 days; format: organism-based; conditions: in vivo, 168 h, time 7 day
[29] = Toxicity in BALB/c mouse assessed as change in AST level at 15 mg/kg, iv administered thrice at 2 hrs interval measured after 7 days; format: organism-based; conditions: in vivo, 168 h, time 7 day
[30] = Cytotoxicity against rat L6 cells assessed as cell viability at 100 uM incubated for 24 hrs by MTT assay relative to control; format: toxicity, cell-based; conditions: L6 cells, read-out: Activity
Staphylococcus aureus [31] = assay: Bactericidal activity against Staphylococcus aureus ATCC 25923 at MIC incubated for 30 mins by time kill assay; format: functional, organism-based
Escherichia coli [32] = assay: Antibacterial activity against Escherichia coli ATCC 25922 infected in BALB/c mouse assessed as bacterial load in blood at 5 mg/kg, iv administered thrice at 1,3 and 5 hrs post-infection measured after 24 hrs post-last dose (Rvb ~ 4 x10^6 CFU/mL); format: functional; conditions: time 29 hrs
[33] = tested on: Mycolicibacterium smegmatis; assay: Antitubercular activity against Mycobacterium smegmatis incubated for 24 hrs by rezasurin dye based assay; format: functional
[34] = Toxicity in BALB/c mouse assessed as animal survival at 15 mg/kg, iv administered thrice at 2 hrs interval measured after 7 days; format: organism-based; conditions: in vivo, 168 h, time 7 day
Escherichia coli [35] = assay: Bactericidal activity against Escherichia coli ATCC 25922 at MIC incubated for 30 mins by time kill assay; format: functional, organism-based
[36] = Hemolytic activity in human RBC measured after 40 mins by absorbance based assay; format: toxicity, cell-based, Erythrocyte; conditions: human red blood cells
Escherichia coli [37] = assay: Induction of resistance development in Escherichia coli ATCC 25922 assessed as fold increase in MIC at sub-MIC measured after 30 passages relative to control; format: functional
[38] = Retention time of compound by RP-HPLC method; format: physicochemical
Staphylococcus aureus [39] = assay: Antibacterial activity against methicillin-resistant Staphylococcus aureus BAA-44 incubated for 16 to 18 hrs by broth dilution assay; format: functional; conditions: time 16-18 hrs
[40] = Hemolytic activity in human RBC assessed as disruption of membrane integrity by Alexa Fluor-Annexin V staining based analysis; format: toxicity, cell-based; conditions: erythrocyte
Staphylococcus aureus [41] = assay: Bactericidal activity against Staphylococcus aureus ATCC 25923 at MIC incubated for 45 mins by time kill assay; format: functional, organism-based
Escherichia coli [42] = assay: Antibacterial activity against Escherichia coli ATCC 25922 infected in BALB/c mouse assessed as bacterial count in liver at 5 mg/kg, iv administered thrice at 1,3 and 5 hrs post-infection measured after 24 hrs post-last dose (Rvb ~ 2.3 x10^7 CFU/mL); format: functional; conditions: time 29 hrs
Escherichia coli [43] = assay: Induction of cell membrane damage in Escherichia coli ATCC 25922 at 3 times MIC incubated for 60 mins by SEM analysis; format: functional, organism-based
[44] = Toxicity in BALB/c mouse infected with Mycobacterium bovis BCG assessed as animal survival at 2.5 to 5 mg/kg, iv administered once a day for 2 weeks; format: organism-based; conditions: in vivo, 336 h, dose 2.5-5 mg/kg
Staphylococcus aureus [45] = assay: Induction of cell membrane damage in Staphylococcus aureus ATCC 25923 at 3 times MIC incubated for 60 mins by SEM analysis; format: functional, organism-based
Pseudomonas aeruginosa = assay: Antibacterial activity against Pseudomonas aeruginosa ATCC BAA-427 incubated for 16 to 18 hrs by broth dilution assay; format: functional; conditions: time 16-18 hrs
Escherichia coli [46] = assay: Bactericidal activity against Escherichia coli ATCC 25922 incubated for 16 to 18 hrs; format: functional; conditions: time 16-18 hrs
Escherichia coli [47] = assay: Bactericidal activity against Escherichia coli ATCC 25922 at MIC incubated for 45 mins by time kill assay; format: functional, organism-based
Staphylococcus aureus [48] = assay: Induction of resistance development in Staphylococcus aureus ATCC 25923 assessed as fold increase in MIC at sub-MIC measured after 25 passages relative to control; format: functional
Escherichia coli [49] = assay: Induction of resistance development in Escherichia coli ATCC 25922 assessed as fold increase in MIC at sub-MIC measured after 25 passages relative to control; format: functional

Substance: H-GRLVGRLVGRLVGRLV-OH
- MIC (Staphylococcus aureus [1]): 1.8 µM
- Activity (Staphylococcus aureus [2]): Active
- MIC (Bacillus subtilis): 1.8 µM
- Activity (Escherichia coli [3]): Active
- fold change (FC) (Staphylococcus aureus [4]): 2
- Activity (Staphylococcus aureus [5]): Active
- Activity (Escherichia coli [6]): 2908 CFU/ml
- MIC (Staphylococcus aureus [7]): 1.8 µM
- fold change (FC) (Staphylococcus aureus [8]): 2
- Activity (Escherichia coli [9]): 1652 CFU/ml
- Activity [10]: Active
- Activity [11]: Non-toxic
- viability at 24 h, 100 µM [12]: 75%
- MIC (Escherichia coli [13]): 1.8 µM
- fold change (FC) (Staphylococcus aureus [14]): 2
- Activity (Staphylococcus aureus [15]): Active
- Activity [16]: inactive
- Activity (Escherichia coli [17]): 1020 CFU/ml
- MIC (Staphylococcus aureus [18]): 1.8 µM
- Activity [19]: Non-toxic
- MBC (Staphylococcus aureus [20]): 1.8 µM
- Survival [21]: 60%
- Activity (Escherichia coli [22]): Active
- MIC (Escherichia coli [23]): 1.8 µM
- remaining at 1 h [24]: ~80%
- Activity [25]: Non-toxic
- Activity [26]: Non-toxic
- MIC (Klebsiella pneumoniae): 3.6 µM
- Activity (Escherichia coli [27]): Active
- Survival [28]: 100%
- Activity [29]: Non-toxic
- viability at 24 h, 100 µM [30]: 75%
- Activity (Staphylococcus aureus [31]): Active; Emerged As Swiftest Molecule
- Activity (Escherichia coli [32]): ~800 CFU/ml
- MIC [33]: 2.5 µM
- Activity [34]: Non-toxic
- Activity (Escherichia coli [35]): Active; Emerged As Swiftest Molecule
- HC50 at 40 min [36]: 2 mM
- fold change (FC) (Escherichia coli [37]): 2
- Retention_time [38]: 20.24 min
- MIC (Staphylococcus aureus [39]): 3.6 µM
- Activity [40]: Non-toxic
- Activity (Staphylococcus aureus [41]): Active
- Activity (Escherichia coli [42]): 1864 CFU/ml
- Activity (Escherichia coli [43]): Active
- Activity [44]: Non-toxic
- Activity (Staphylococcus aureus [45]): Active
- MIC (Pseudomonas aeruginosa): 7.3 µM
- MBC (Escherichia coli [46]): 1.8 µM
- Activity (Escherichia coli [47]): Active

Substance: H-VLGRVLGRVLGRVLGR-OH
- MIC (Staphylococcus aureus [1]): 14.4 µM
- Activity (Staphylococcus aureus [2]): Active
- fold change (FC) (Staphylococcus aureus [48]): 2
- MIC (Bacillus subtilis): 3.6 µM
- Activity (Escherichia coli [3]): Active
- fold change (FC) (Staphylococcus aureus [4]): 4
- Activity (Staphylococcus aureus [5]): Active
- MIC (Staphylococcus aureus [7]): 3.6 µM
- fold change (FC) (Staphylococcus aureus [8]): 4
- fold change (FC) (Escherichia coli [49]): 2
- Activity [10]: Active
- Activity [11]: Non-toxic
- viability at 24 h, 100 µM [12]: 75%
- MIC (Escherichia coli [13]): 1.8 µM
- fold change (FC) (Staphylococcus aureus [14]): 4
- Activity (Staphylococcus aureus [15]): Active
- Activity [16]: inactive
- MIC (Staphylococcus aureus [18]): 7.3 µM
- Activity [19]: Non-toxic
- MBC (Staphylococcus aureus [20]): 3.6 µM
- Activity (Escherichia coli [22]): Active
- MIC (Escherichia coli [23]): 14.4 µM
- Activity [26]: Non-toxic
- MIC (Klebsiella pneumoniae): 3.6 µM
- Activity (Escherichia coli [27]): Active
- viability at 24 h, 100 µM [30]: 75%
- Activity (Staphylococcus aureus [31]): Active; Emerged As Swiftest Molecule
- MIC [33]: 2.5 µM
- Activity (Escherichia coli [35]): Active; Emerged As Swiftest Molecule
- HC50 at 40 min [36]: 2 mM
- fold change (FC) (Escherichia coli [37]): 4
- Retention_time [38]: 20.54 min
- MIC (Staphylococcus aureus [39]): 3.6 µM
- Activity [40]: Non-toxic
- Activity (Staphylococcus aureus [41]): Active
- Activity (Escherichia coli [43]): Active
- Activity [44]: Non-toxic
- Activity (Staphylococcus aureus [45]): Active
- MIC (Pseudomonas aeruginosa): 7.3 µM
- MBC (Escherichia coli [46]): 3.6 µM
- Activity (Escherichia coli [47]): Active
